Data as given in patent US7429482B2, “Screening tools for discovery of novel anabolic agents” (United States of America as represented by the Department …, priority 2005, dated 2008).

What was measured:
[1] = system: ARE reporter gene (MMTV hormone response element); assay: ARE (MMTV hormone response element) luciferase reporter in C2C12 and C2C12.AR cells; type: cell-based
Text: The reporter genes pMAF3.1, pMAF2.4, pMAF948, pMAF400, and pMAF400-241 express firefly luciferase under the control of promoter regions of the human MAFbx gene and are described in Example 1. The rARC562G vector, encoding rat AR with a C562->G mutation in the first zinc binding module that disrupts binding of AR to DNA was described by Palvimo et al. (Mol Endocrinol 7: 1399-1407, 1993) pAR.4RKM (expressing AR with 4 R/K->M mutations in the nuclear localization sequence that is unable to enter the nucleus) and pAR.ABC (lacking the ligand binding domain) were described by Zhou et al. (J Biol Chem 269: 13115-13123, 1994). The pBabe.puro retroviral backbone described by Morgenstern and Land (Nucleic Acids Res 18: 3587-3596, 1990) was modified by introduction of a Not1 site. […]
Cells were seeded into wells of 24-well plates (5×10^5 cells/well) then maintained overnight in DMEM with 10% CDS-FBS. […] Cells were maintained for an additional 24 hours, at which time both firefly and renilla luciferase activity were determined using the Dual Luciferase Assay (Promega, Madison, Wis.) and a Berthold 96-well plate luminometer. […]
To determine whether C2C12 cells expressed AR, total RNA from these cells was extracted and analyzed by real-time PCR and compared to levels of AR mRNA in gastrocnemius muscle from male mice. […]

[2] = system: IGF-1 receptor (IGF-1R); assay: Acute denervation: IGF-1 receptor mRNA in EDL and soleus (qPCR); type: in vivo, rat
Description: Male Wistar rats weighing 250 gm (Taconic Farms, Germantown, N.Y.) were provided food and water ad libitum and were housed in a temperature and humidity controlled environment providing a 12:12 hour day-night cycle. For surgical procedures, animals were anesthetized with ketamine/xylazine. The left sciatic nerve was exposed by blunt dissection, and a 1 to 2 mm piece of this nerve was excised just below the level of the femoral head. A sham surgery was performed on the right hind limb in which the sciatic nerve was exposed but was not transected. Model 2002 Alzet pumps were implanted subcutaneously on the back. […] A pellet containing 15 mg of testosterone (Innovative Research of America, Sarasota, Fla.) administered as a continuous infusion (5 mg/wk), or a pellet containing placebo, was inserted into a subcutaneous pouch. […]
Total RNA was extracted from skeletal muscle (20 mg) by homogenization in guanidine thiocyanate using a Polytron followed by extraction using phenol-chloroform (Chomczynski and Sacchi, Anal Biochem 162: 156-159, 1987). […] Total RNA was then eluted and quantified by absorbance at 260 nm. […] Levels of gene expression in the denervated muscle were expressed as fold induction relative to muscle from the sham-denervated leg of animals administered vehicle. […] Fold-induction was determined using the 2^−ΔΔCt method, using expression of 18S RNA as the normalization control. […]

Row | Compound | luciferase expression by ARE-Luc reporter ([1]; C2C12.AR cells (human AR)) | increase in luciferase expression over baseline ([1]; wild-type C2C12 cells, MMTV hormone response element reporter) | IGF-1R expression ([2]; denervated soleus or EDL) | IGF-1R expression ([2]; sham-denervated soleus and EDL, changes not significant)
1 | C[C@]12CC[C@H]3[C@@H](CCC4=CC(=O)CC[C@@]43C)[C@@H]1CC[C@@H]2O [testosterone] | marked increase | about 2 fold |  | 
2 | C[C@]12CC[C@H]3[C@@H](CCC4=CC(=O)CC[C@@H]43)[C@@H]1CC[C@@H]2O [nandrolone] |  |  | No appreciable effects | tended to increase
